Laboratory results: patent US20040037897A1, “Treatment of drug resistant organisms” (priority 2000, published 2004)

Tested on: Staphylococcus aureus organisms
Test: In vitro tests of susceptibility to NO
Format: cell-based

[N]=O [NO, Nitric oxide]
susceptibility to NO: susceptible
